Converted amounts (≈) assume the structure as drawn. “And” between values parts separate entries of the source, which are not always exact repeats. Identical values can stand only once.
Assays:
E. coli [1] = test: Single-step resistance selection; assay type: cell-based; conditions: 4 × MIC, 48 h
A. baumannii [2] = test: Single-step resistance selection; assay type: cell-based; conditions: 4 × MIC, 48 h
[3] = system: C. albicans200 (MDR00200); test: MIC and MFC by broth microdilution; assay type: cell-based, Candida albicans
[4] = system: C. albicans100 (MDR00100); test: Agar well-diffusion antimicrobial sensitivity assay; assay type: cell-based, Candida albicans; conditions: Candida albicans, read-out: Inhibition Zone (IZ)
S. epidermidis [5] = test: Single-step resistance selection; assay type: cell-based, Staphylococcus epidermidis; conditions: 4 × MIC, 48 h
C. albicans200 [6] = test: Checkerboard combination assay with Ketoconazole; assay type: cell-based, Candida albicans
S. epidermidis biofilm = test: Staphylococcus biofilm mass reduction; assay type: cell-based; conditions: at their MIC
E. coli (MDR00501) [7] = test: MIC and MBC by broth microdilution; assay type: cell-based
S. aureus [8] = test: Checkerboard combination assay with Ciprofloxacin; assay type: cell-based, Staphylococcus aureus
[9] = system: S. epidermidis (MDR00223); test: Agar well-diffusion antimicrobial sensitivity assay; assay type: cell-based, Staphylococcus epidermidis; conditions: Staphylococcus epidermidis, read-out: Inhibition Zone (IZ)
[10] = system: clinical pathogenic isolates; test: Single-step resistance selection, whole panel; assay type: cell-based; conditions: 4 × MIC
K. pneumoniae (MDR00244) = test: MIC and MBC by broth microdilution; assay type: cell-based; conditions: ratio in parentheses
S. aureus (MDR00231) [11] = test: MIC and MBC by broth microdilution; assay type: cell-based, Staphylococcus aureus
K. pneumoniae [12] = test: Single-step resistance selection; assay type: cell-based; conditions: 4 × MIC, 48 h
C. albicans200 [13] = test: Single-step resistance selection; assay type: cell-based, Candida albicans; conditions: 4 × MIC, 48 h
K. pneumoniae [14] = test: Checkerboard combination assay with Ciprofloxacin; assay type: cell-based
E. coli (MDR00501) [15] = test: Agar well-diffusion antimicrobial sensitivity assay; assay type: cell-based; conditions: Escherichia coli, read-out: Inhibition Zone (IZ)
[16] = target: T1, dihydrofolate reductase (DHFR) (Homo sapiens, UniProt P00374); test: DHFR inhibition; assay type: biochemical
T1 sequence (P00374 1-187): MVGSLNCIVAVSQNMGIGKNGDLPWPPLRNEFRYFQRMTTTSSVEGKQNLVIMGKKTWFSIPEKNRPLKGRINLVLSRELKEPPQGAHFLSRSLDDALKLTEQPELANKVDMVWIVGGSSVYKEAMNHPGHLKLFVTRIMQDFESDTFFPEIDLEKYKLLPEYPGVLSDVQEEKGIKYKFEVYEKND

B. subtilis (MDR00423) = test: MIC and MBC by broth microdilution; assay type: cell-based
[17] = system: BNL: mouse normal liver cells; test: In vitro cytotoxicity on normal cell line; assay type: cell-based
[18] = In vitro cytotoxicity on normal cell line; assay type: cell-based, mouse; conditions: mouse, BNL normal liver cells
[19] = In vitro cytotoxicity on normal cell line; assay type: cell-based, green monkey; conditions: green monkey, Vero kidney cells
[20] = system: Vero: green monkey kidney; test: In vitro cytotoxicity on normal cell line; assay type: cell-based
C. albicans100 [21] = test: Checkerboard combination assay with Ketoconazole; assay type: cell-based, Candida albicans
B. subtilis [22] = test: Single-step resistance selection; assay type: cell-based; conditions: 4 × MIC, 48 h
A. baumannii (MDR00521) = test: MIC and MBC by broth microdilution; assay type: cell-based
B. subtilis [23] = test: Checkerboard combination assay with Ciprofloxacin; assay type: cell-based
S. aureus [24] = test: Single-step resistance selection; assay type: cell-based, Staphylococcus aureus; conditions: 4 × MIC, 48 h
[25] = system: H9C2: rat heart/myocardium; test: In vitro cytotoxicity on normal cell line; assay type: cell-based
[26] = In vitro cytotoxicity on normal cell line; assay type: cell-based, rat; conditions: rat, H9C2 heart/myocardium cells
A. baumannii [27] = test: Checkerboard combination assay with Ciprofloxacin; assay type: cell-based
[28] = system: C. albicans100 (MDR00100); test: MIC and MFC by broth microdilution; assay type: cell-based, Candida albicans
[29] = system: C. albicans200 (MDR00200); test: Agar well-diffusion antimicrobial sensitivity assay; assay type: cell-based, Candida albicans; conditions: Candida albicans, read-out: Inhibition Zone (IZ)
E. coli [30] = test: Checkerboard combination assay with Ciprofloxacin; assay type: cell-based
E. coli DNA gyrase = E. coli DNA gyrase (Escherichia coli, UniProt P0AES4+P0AES6); test: DNA gyrase inhibition; assay type: biochemical
C. albicans100 [31] = test: Single-step resistance selection; assay type: cell-based, Candida albicans; conditions: 4 × MIC, 48 h
RBCs = test: Hemolytic assay; assay type: cell-based; conditions: human RBCs; compounds 1.0 mg/mL; Triton X-100 0.1% v/v; 37 °C, 35 min
S. aureus biofilm = test: Staphylococcus biofilm mass reduction; assay type: cell-based; conditions: at their MIC
S. aureus (MDR00231) [32] = test: Agar well-diffusion antimicrobial sensitivity assay; assay type: cell-based, Staphylococcus aureus; conditions: Staphylococcus aureus, read-out: Inhibition Zone (IZ)
S. epidermidis [33] = test: Checkerboard combination assay with Ciprofloxacin; assay type: cell-based, Staphylococcus epidermidis
[34] = system: S. epidermidis (MDR00223); test: MIC and MBC by broth microdilution; assay type: cell-based, Staphylococcus epidermidis

Sequence of E. coli DNA gyrase (P0AES4 whole entry, one chain of several): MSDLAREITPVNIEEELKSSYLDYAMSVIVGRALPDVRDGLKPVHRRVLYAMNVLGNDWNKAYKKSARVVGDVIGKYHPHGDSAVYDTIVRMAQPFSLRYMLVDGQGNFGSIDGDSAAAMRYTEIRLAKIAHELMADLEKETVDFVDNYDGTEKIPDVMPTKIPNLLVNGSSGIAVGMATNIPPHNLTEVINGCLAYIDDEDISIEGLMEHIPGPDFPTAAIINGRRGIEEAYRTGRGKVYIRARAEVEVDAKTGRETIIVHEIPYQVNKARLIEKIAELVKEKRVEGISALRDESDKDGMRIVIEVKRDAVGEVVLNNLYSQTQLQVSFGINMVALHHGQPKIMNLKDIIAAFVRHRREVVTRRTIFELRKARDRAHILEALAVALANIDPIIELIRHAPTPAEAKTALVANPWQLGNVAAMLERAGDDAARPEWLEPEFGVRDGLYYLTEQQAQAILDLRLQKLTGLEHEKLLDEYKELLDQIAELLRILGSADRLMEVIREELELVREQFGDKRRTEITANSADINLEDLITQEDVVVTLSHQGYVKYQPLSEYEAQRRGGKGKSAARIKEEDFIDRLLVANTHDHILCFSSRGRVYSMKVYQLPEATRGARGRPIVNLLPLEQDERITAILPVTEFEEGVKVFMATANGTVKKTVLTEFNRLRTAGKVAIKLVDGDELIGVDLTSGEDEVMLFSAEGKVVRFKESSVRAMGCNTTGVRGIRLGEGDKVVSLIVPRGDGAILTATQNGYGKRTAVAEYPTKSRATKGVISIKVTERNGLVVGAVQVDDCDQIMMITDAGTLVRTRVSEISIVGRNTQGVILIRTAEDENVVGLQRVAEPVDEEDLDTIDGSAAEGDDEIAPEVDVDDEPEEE

With `N#CC(=Cc1ccccc1O)C1=NC(=O)C(=Cc2cn(-c3ccccc3)nc2-c2ccccc2)S1` [Compound 5a, 3-(2-Hydroxyphenyl)-2-(5-((1,3-diphenyl-1H-pyrazol-4-yl)methylene)-4-oxo-4,5-dihydro-thiazol-2-yl)acrylonitrile] the “Single-step resistance frequency (mutation frequency)” value (from here on “Single-step resistance frequency”) (E. coli [1]) was 2.21 × 10^–7, the “Single-step resistance frequency” value (A. baumannii [2]) was 1.80 × 10^–8 and the “MIC (mean ± SEM)” value ([3]; C. albicans200, broth microdilution) was 0.24 ± 0.4 µg/mL (≈ 0.506 µM). It also gave an MFC/MIC ([3]; C. albicans200, ratio in parentheses) of 1, an MIC ([3]; Candida albicans, read-out: MIC (mean ± SEM), C. albicans200, broth microdilution) of 0.24 µg/mL (≈ 0.506 µM) and a zone of inhibition at 100000 µg/mL [4] of 28 ± 0.4 mm. The “Single-step resistance frequency” value (S. epidermidis [5]) was 2.71 × 10^–8, the combination effect (C. albicans200 [6]) was “S (S: synergism)” and the “fractional inhibitory concentration index (FICI)” value (C. albicans200 [6]) was 0.5. For the same compound, the “reduction of biofilm formation” value (S. epidermidis biofilm) was 79.5%, the “MIC (mean ± SEM)” value (E. coli (MDR00501) [7]; E. coli, broth microdilution) was 0.46 ± 0.3 µg/mL (≈ 0.969 µM) and the MBC/MIC (E. coli (MDR00501) [7]; E. coli, ratio in parentheses) was 1. For the same compound, the MIC (E. coli (MDR00501) [7]; Escherichia coli, read-out: MIC (mean ± SEM), E. coli, broth microdilution) was 0.46 µg/mL (≈ 0.969 µM), the combination effect (S. aureus [8]) was “S (S: synergism)” and the “fractional inhibitory concentration index (FICI)” value (S. aureus [8]) was 0.5. The zone of inhibition at 100000 µg/mL [9] was 27 ± 0.24 mm, the “mutation frequency, range over panel” value [10] was 2.21 × 10^–7 to 2.71 × 10^–8 and the MBC/MIC (K. pneumoniae (MDR00244)) was 1. For the same compound, the MBC/MIC (S. aureus (MDR00231) [11]; S. aureus, ratio in parentheses) was 1, the MIC (S. aureus (MDR00231) [11]; Staphylococcus aureus, read-out: MIC (mean ± SEM), S. aureus, broth microdilution) was 0.48 ± 0.1 µg/mL (≈ 1.01 µM) and the “Single-step resistance frequency” value (K. pneumoniae [12]) was 1.90 × 10^–8. The “Single-step resistance frequency” value (C. albicans200 [13]) was 4.40 × 10^–7, the combination effect (K. pneumoniae [14]) was “S (S: synergism)” and the “fractional inhibitory concentration index (FICI)” value (K. pneumoniae [14]) was 0.25. For the same compound, the zone of inhibition at 100000 µg/mL (E. coli (MDR00501) [15]) was 28 ± 0.14 mm, the IC50 [16] was 1.11 ± 0.15 µM and the MBC/MIC (B. subtilis (MDR00423); B. subtilis, ratio in parentheses) was 1. The MIC (B. subtilis (MDR00423); Bacillus subtilis, read-out: MIC (mean ± SEM), B. subtilis, broth microdilution) was 0.49 ± 0.2 µg/mL (≈ 1.03 µM), the “Selectivity index against DHFR” value ([17]; IC50 of BNL / IC50 of DHFR) was 93.23 and the “Selectivity index against DNA gyrase” value ([17]; IC50 of BNL / IC50 of DNA gyrase) was 4.67. For the same compound, the IC50 at 72 h [18] was 103 ± 1.44 µM, the IC50 at 72 h [19] was 80.2 ± 1.79 µM and the “Selectivity index against DHFR” value ([20]; IC50 of Vero / IC50 of DHFR) was 72.28. The “Selectivity index against DNA gyrase” value ([20]; IC50 of Vero / IC50 of DNA gyrase) was 3.62, the combination effect (C. albicans100 [21]) was “S (S: synergism)” and the “fractional inhibitory concentration index (FICI)” value (C. albicans100 [21]) was 0.25. For the same compound, the “Single-step resistance frequency” value (B. subtilis [22]) was 2.93 × 10^–7, the “MIC (mean ± SEM)” value (A. baumannii (MDR00521); broth microdilution) was 0.48 ± 0.5 µg/mL (≈ 1.01 µM) and the MBC/MIC (A. baumannii (MDR00521); ratio in parentheses) was 0.5. The combination effect (B. subtilis [23]) was “S (S: synergism)”, the “fractional inhibitory concentration index (FICI)” value (B. subtilis [23]) was 0.25 and the “Single-step resistance frequency” value (S. aureus [24]) was 3.22 × 10^–7. For the same compound, the “Selectivity index against DHFR” value ([25]; IC50 of H9C2 / IC50 of DHFR) was 89.37, the “Selectivity index against DNA gyrase” value ([25]; IC50 of H9C2 / IC50 of DNA gyrase) was 4.48 and the IC50 at 72 h [26] was 99.2 ± 2.29 µM. The combination effect (A. baumannii [27]) was “S (S: synergism)”, the “fractional inhibitory concentration index (FICI)” value (A. baumannii [27]) was 0.5 and the “MIC (mean ± SEM)” value ([28]; C. albicans100, broth microdilution) was 0.43 ± 0.5 µg/mL (≈ 0.906 µM). The MFC/MIC ([28]; C. albicans100, ratio in parentheses) was 0.5, the MIC ([28]; Candida albicans, read-out: MIC (mean ± SEM), C. albicans100, broth microdilution) was 0.43 µg/mL (≈ 0.906 µM) and the zone of inhibition at 100000 µg/mL [29] was 30 ± 0.6 mm. The combination effect (E. coli [30]) was “S (S: synergism)”, the “fractional inhibitory concentration index (FICI)” value (E. coli [30]) was 0.5 and the IC50 (E. coli DNA gyrase) was 22.1 ± 0.3 µM. For the same compound, the “Single-step resistance frequency” value (C. albicans100 [31]) was 2.10 × 10^–8, the “%lysis of RBCs” value (RBCs) was 9.67% and 9.67 ± 0.31% and the “reduction of biofilm formation” value (S. aureus biofilm) was 89.1%. The zone of inhibition at 100000 µg/mL (S. aureus (MDR00231) [32]) was 29 ± 0.22 mm, the combination effect (S. epidermidis [33]) was “S (S: synergism)” and the “fractional inhibitory concentration index (FICI)” value (S. epidermidis [33]) was 0.5. The MBC/MIC ([34]; S. epidermidis, ratio in parentheses) was 0.5 and the MIC ([34]; Staphylococcus epidermidis, read-out: MIC (mean ± SEM), S. epidermidis, broth microdilution) was 0.49 ± 0.4 µg/mL (≈ 1.03 µM).

Source: PMC8851638 (ACS Omega, 2022)
